pKi: −log10 of the molar value.
Legend:
human matriptase = target: T1, human matriptase (Homo sapiens, UniProt Q9Y5Y6); assay: Assay for inhibition of matriptase (fluorogenic AMC substrate); format: biochemical; settings: for Velocity (FU/min): residual matriptase velocity with test compound, substrate Boc-Gln-Ala-Arg-AMC, method gives 10 μM for initial screening, lower = more inhibition; for pKi: calculated from velocity by nonlinear regression, competitive inhibition model (GraphPad Prism 5)
T1 sequence (Q9Y5Y6 1-855): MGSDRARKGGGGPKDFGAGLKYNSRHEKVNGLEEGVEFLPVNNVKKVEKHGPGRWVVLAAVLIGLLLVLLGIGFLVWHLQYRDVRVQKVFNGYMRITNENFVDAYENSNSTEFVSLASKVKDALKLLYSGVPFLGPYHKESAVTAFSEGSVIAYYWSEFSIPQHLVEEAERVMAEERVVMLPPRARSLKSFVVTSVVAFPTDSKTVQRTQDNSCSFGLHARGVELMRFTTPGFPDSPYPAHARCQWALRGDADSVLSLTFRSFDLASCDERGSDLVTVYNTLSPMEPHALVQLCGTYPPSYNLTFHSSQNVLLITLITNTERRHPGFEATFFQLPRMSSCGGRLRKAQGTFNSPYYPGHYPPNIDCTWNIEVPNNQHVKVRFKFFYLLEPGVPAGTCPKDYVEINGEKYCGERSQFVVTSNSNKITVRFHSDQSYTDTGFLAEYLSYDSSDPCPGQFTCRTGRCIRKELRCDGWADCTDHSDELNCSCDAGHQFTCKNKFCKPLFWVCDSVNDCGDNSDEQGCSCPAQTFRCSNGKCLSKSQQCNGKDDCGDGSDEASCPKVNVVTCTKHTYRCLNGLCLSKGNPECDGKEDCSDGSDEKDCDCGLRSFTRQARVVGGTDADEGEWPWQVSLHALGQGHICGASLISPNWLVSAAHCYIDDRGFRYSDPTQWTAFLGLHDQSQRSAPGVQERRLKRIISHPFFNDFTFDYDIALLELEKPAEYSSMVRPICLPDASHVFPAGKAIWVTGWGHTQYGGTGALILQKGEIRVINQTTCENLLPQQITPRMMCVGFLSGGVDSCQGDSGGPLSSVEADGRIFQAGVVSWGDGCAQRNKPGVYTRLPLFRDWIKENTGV
Excerpt: The following describes an assay for matriptase as a representative serine protease and is based upon reported methods. (Désilets, A.; Longpré, J.-M.; Beaulieu, M.-E.; Leduc, R. FEBS Lett. 2006, 580, 2227-2232.) Similar assays are applicable and available for other serine proteases.
Enzyme activities were monitored by measuring the release of fluorescence from AMC-coupled peptides (excitation, 360 nm; emission, 441 nm) in a FLX-800 TBE microplate reader (Bio-Tek Instruments, Winooski, Vt., USA). The purified human matriptase was active site titrated with the burst titrant 4-methylumbelliferyl-p-guanidino benzoate (MUGB). Enzymatic assays with matriptase were performed in Tris HCl 100 mM containing 500 µg/mL BSA at pH 9. Human soluble furin was expressed, purified, titrated and assayed as described in the literature (Denault, J. B.; Lazure, C.; Day, R; Leduc, R. Protein Expr. Purif. 2000, 19, 113-124.) The purified HAT protein was active-site titrated with MUGB. Assays with HAT were performed in 50 mM Tris-HCl at pH 8.6.
Enzymes were diluted to concentrations ranging from 4 to 12.5 nM for furin, from 2 to 7 nM for matriptase and 20 pM for HAT and incubated with either 10 μM (for initial screening) […] or appropriate dilutions (for kinetic analysis), for example 0, 500, 1000, 2000 nM or 0, 250, 500, 1000, 2500, 5000 nM, of the test compound for 15 min at RT. Residual enzyme activity was measured by following the hydrolysis of a fluorogenic substrate (4 μM Boc-Arg-Val-Arg-Arg-AMC for furin, Boc-Gln-Ala-Arg-AMC for matriptase and 4 μM Boc-Val-Pro-Arg-AMC for HAT) (Bachem Bioscience, King of Prussia, Pa., USA). Saturation curves were performed in the presence of increasing concentrations of test compounds. Data from three independent experiments or more were typically averaged and residual velocities were plotted as a function of test compound concentration. Data were fitted by non-linear regression analysis to Equation (1) (Bieth, J. G. Methods Enzymol. 1995, 248, 59-84.) using the Enzfitter software (Biosoft, Ferguson, Mo., USA).
vi/v0=1−{([E]0+[I]0+Ki(app))−(([E]0+[I]0+Ki(app))^2−4[E]0[I]0)^1/2}/2[E]0 Equation (1): […]
where v0 and vi are the steady-state rates of substrate hydrolysis in the absence and presence of inhibitor, respectively, [E]0, the initial concentration of enzyme, [I]0, the initial concentration of inhibitor and Ki(app) the substrate-dependent equilibrium dissociation constant. The substrate-independent constant Ki was calculated using Equation (2) (Bieth, J. G. Methods Enzymol. 1995, 248, 59-84.),
Kt=Ki(app)(1+[S]0/Km) Equation (2): […]
The table presents results for matriptase inhibition for representative compounds of the invention.
Ki's can be calculated from the velocity using nonlinear regression analysis. The model used is a competitive enzyme inhibition equation where KmObs=Km*(1+[I]/Ki) and Y=Vmax*X/(KmObs+X). X is the substrate concentration. Y the velocity.

tumor metastasis = settings: cited from earlier work

Row | SMILES | Velocity (FU/min) (human matriptase) | pKi (human matriptase) | activity in an in vivo model of tumor metastasis (tumor metastasis)
1 | C[C@@H]1C(=O)N[C@H](Cc2cccnc2)C(=O)NCCCc2ccc(F)cc2OCCN[C@@H](C2CC2)C(=O)N1C [Compound 494] | 2125 FU/min |  | 
2 | C[C@@H]1CN[C@@H](C2CC2)C(=O)N(C)[C@H](C)C(=O)N[C@H](Cc2ccc(C(=N)N)cc2)C(=O)NCCCc2ccccc2O1 [Compound 459] | 140 FU/min | 6.61 | 
3 | C[C@@H]1C(=O)N[C@H](Cc2ccc(C(=N)N)cc2)C(=O)NCCCC2CCCCC2OCCN[C@@H](C2CC2)C(=O)N1C (stereo partly drawn) [Compound 480] | 1875 FU/min |  | 
4 | C[C@@H]1C(=O)N[C@H](Cc2ccncc2)C(=O)NCCCc2ccc(F)cc2OCCN[C@@H](C2CC2)C(=O)N1C [Compound 495] | 2700 FU/min |  | 
5 | C[C@@H]1CCc2ccc(F)cc2OCCN[C@@H](C2CC2)C(=O)N(C)[C@H](C)C(=O)N[C@H](Cc2ccc(C(=N)N)cc2)C(=O)N1 [Compound 457] | 1750 FU/min |  | 
6 | C[C@@H]1NCCOc2cc(F)ccc2CCCNC(=O)[C@@H](Cc2ccc(C(=N)N)cc2)NC(=O)[C@@H](C)N(C)C1=O [Compound 467] | 2300 FU/min |  | 
7 | C[C@@H]1C(=O)N[C@H](Cc2ccc(C(=N)N)cc2)C(=O)NCc2ccccc2Sc2ccccc2CN[C@@H](C2CC2)C(=O)N1C [Compound 475] | 2125 FU/min |  | 
8 | C[C@@H]1C(=O)N[C@H](Cc2ccc(C(=N)N)cc2)C(=O)NCCCc2ccc(F)cc2OCCN[C@H](C2CC2)C(=O)N1C [Compound 456] | 2250 FU/min |  | 
9 | C[C@@H]1CN[C@@H](C2CC2)C(=O)N(C)[C@H](C)C(=O)N[C@H](Cc2ccc(C(=N)N)cc2)C(=O)NCCCc2ccc(F)cc2O1 [Compound 458] | 812 FU/min |  | 
10 | C[C@@H]1C(=O)N[C@@H](Cc2ccc(C(=N)N)cc2)C(=O)NCCCc2ccc(F)cc2OCCN[C@@H](C2CC2)C(=O)N1C [Compound 454] | 2190 FU/min |  | 
11 | C[C@@H]1C(=O)N[C@H](Cc2ccc(C(=N)N)cc2)C(=O)NCCc2cccc(c2)CN[C@@H](C2CC2)C(=O)N1C [Compound 473] | 2375 FU/min |  | 
12 | C[C@@H]1C(=O)N[C@H](Cc2cscn2)C(=O)NCCCc2ccc(F)cc2OCCN[C@@H](C2CC2)C(=O)N1C [Compound 496] | 2700 FU/min |  | 
13 | C[C@@H]1C(=O)N[C@H](CCC(N)=O)C(=O)NCCCc2ccc(F)cc2OCCN[C@@H](C2CC2)C(=O)N1C [Compound 490] | 2440 FU/min |  | 
14 | C[C@@H]1C(=O)N[C@H](CCCNC(=N)N)C(=O)NCCCc2ccc(F)cc2OCCN[C@@H](C2CC2)C(=O)N1C [Compound 488] | 2250 FU/min |  | 
15 | C[C@@H]1C(=O)N[C@H](Cc2ccc(C(=N)N)cc2)C(=O)NC/C=C/c2ccccc2OCCN[C@@H](C2CC2)C(=O)N1C [Compound 465] | 1125 FU/min |  | 
16 | C[C@@H]1C(=O)N[C@H](Cc2ccc(C(=N)N)cc2)C(=O)NCCOc2cccc(c2)OCCN[C@@H](C2CC2)C(=O)N1C [Compound 479] | 2190 FU/min |  | 

Row | SMILES | Velocity (FU/min) (human matriptase) | pKi (human matriptase) | activity in an in vivo model of tumor metastasis (tumor metastasis)
17 | C[C@@H]1C(=O)N[C@H](Cc2ccc(C(N)=O)cc2)C(=O)NCCCc2ccc(C(=N)N)cc2OCCN[C@@H](C2CC2)C(=O)N1C [Compound 499] | 937 FU/min |  | 
18 | C[C@@H]1CN[C@@H](C2CC2)C(=O)N(C)[C@H](C)C(=O)N[C@H](Cc2ccc(C(N)=O)cc2)C(=O)NCCCc2ccccc2O1 [Compound 498] | 580 FU/min |  | 
19 | C[C@@H]1C(=O)N[C@H](Cc2ccc(C(=N)N)cc2)C(=O)NCCCc2ccc(F)cc2OCCN[C@@H](C2CC2)C(=O)N1C [Compound 451] | 1590 FU/min | 5.84 | 
20 | C[C@H]1C(=O)N[C@H](Cc2ccc(C(=N)N)cc2)C(=O)NCCCc2ccc(F)cc2OCCN[C@@H](C2CC2)C(=O)N1C [Compound 455] | 2440 FU/min |  | 
21 | C[C@@H]1C(=O)N[C@H](CCCCN)C(=O)NCCCc2ccc(F)cc2OCCN[C@@H](C2CC2)C(=O)N1C [Compound 485] | 2625 FU/min |  | 
22 | COC(=O)NC(CCC(=O)O)(Cc1cccc(C(=N)N)c1)C(=O)NCC(=O)N[C@H](C=O)CCCNC(=N)N (stereo partly drawn) [CVS-3983] |  |  | has shown activity
23 | C[C@@H]1C(=O)N[C@H](CCCNC(N)=O)C(=O)NCCCc2ccc(F)cc2OCCN[C@@H](C2CC2)C(=O)N1C [Compound 491] | 2440 FU/min |  | 
24 | C[C@@H]1C(=O)N[C@H](Cc2ccc(C(=N)N)cc2)C(=O)NC/C=C/c2cccc(c2)OCCN[C@@H](C2CC2)C(=O)N1C [Compound 482] | 2500 FU/min |  | 
25 | C[C@@H]1C(=O)N[C@H](Cc2ccc(C(=N)N)cc2)C(=O)NCCCc2ccc(C(=N)N)cc2OCCN[C@@H](C2CC2)C(=O)N1C [Compound 461] | 812 FU/min |  | 
26 | C[C@@H]1C(=O)N[C@H](Cc2ccc(C(=N)N)cc2)C(=O)NCCc2ccccc2CCCCN[C@@H](C2CC2)C(=O)N1C [Compound 478] | 2440 FU/min |  | 
27 | C[C@@H]1C(=O)N[C@H](CCCCNC(N)=O)C(=O)NCCCc2ccc(F)cc2OCCN[C@@H](C2CC2)C(=O)N1C [Compound 492] | 2440 FU/min |  | 
28 | C[C@@H]1C(=O)N[C@H](Cc2c[nH]cn2)C(=O)NCCCc2ccc(F)cc2OCCN[C@@H](C2CC2)C(=O)N1C [Compound 493] | 2700 FU/min |  | 
29 | C[C@@H]1C(=O)N[C@H](CCCN)C(=O)NCCCc2ccc(F)cc2OCCN[C@@H](C2CC2)C(=O)N1C [Compound 487] | 2500 FU/min |  | 
30 | C[C@@H]1C(=O)N[C@H](Cc2ccc(C(=N)N)cc2)C(=O)NCCCc2ccccc2OCCN[C@@H](C2CC2)C(=O)N1C [Compound 464] | 1875 FU/min |  | 
31 | C[C@@H]1C(=O)N[C@H](Cc2ccc(C(=N)N)cc2)C(=O)NCCc2ccccc2OCCN[C@@H](C2CC2)C(=O)N1C [Compound 481] | 1875 FU/min |  | 
